Values of other authors, collected in patent US7094421B2, “Plaster containing 4-biphenylacetic acid” (Teikoku Seiyaki Co., Ltd., priority 2000, dated 2006).

Details: solvent crotamiton

solubility of 4-biphenylacetic acid in crotamiton: about 7%
SMILES: O=C(O)Cc1ccc(-c2ccccc2)cc1 [4-biphenylacetic acid]
